Reference: patent publication US4742045A, “Glycopeptide antibiotics” (SmithKline Beckman Corporation, priority 1986, dated 1988)
≈ marks a conversion by molar mass, not a printed value.

Key:
[1] = test system: Staphylococcus aureus; assay: standard microtiter assay, minimum inhibitory concentration; type: cell-based; details: for MIC: Table 5 organism 1 S. aureus
From the text: (§1) Representative results of standard microtiter assays are reported in Tables 1, 2 and 3 which follow, as the minimum inhibitory concentration of antibiotic (μg/ml).
(§2) In Table 1, test organisms 1-13 were different strains of Staphylococcus aureus, and 14-16 were different strains of Staphylococcus epidermidis. In Table 2, test organisms 1-5 were different strains of S. aureus; 6, 8, 12 and 14 were different strains of S. epidermidis; 7 was a Staphylococcus haemolyticus; 9 and 10 were different strains of Streptococcus faecalis; 11 was a Streptococcus pyogenes; and 13 was a Staphylococcus saprophyticus. In Table 3, test organisms 1-3 were different strains of S. aureus; 4 and 6 were different strains of S. epidermidis; 5 was a S. haemolyticus and 7 and 8 were different strains of Streptococcus faecalis. Except where individual components are indicated, the CWI-785 antibiotic employed was the CWI-785 complex; in some cases, HCl salts of the CWI-785 antibiotic were employed.
(§3) The number of strains tested is shown in parentheses below each organism. The average MIC is reported in μg/ml.
(§4) In Table 5 are shown data from standard microtiter assays carried out in a presence of no serum, 50% human serum (hum.) and 50% mouse serum (mse.). The test organisms were 1: S. aureus; 2,4 and 5: different strains of S. epidermidis; 3: S. haemolyticus; 6: S. saprophyticus; 7 and 8: different strains of S. faecalis.

[2] = test system: Streptococcus faecalis; assay: as above; type: cell-based
From the text: as §1, §2, §3, §4

[3] = test system: Staphylococcus epidermidis; assay: as above; type: cell-based
From the text: as §1, §2, §4

[4] = test system: Staphylococcus haemolyticus; assay: as above; type: cell-based; details: for MIC: Table 5 organism 3 S. haemolyticus
From the text: as §1, §2, §4

[5] = test system: Staphylococcus saprophyticus; assay: as above; type: cell-based; details: for MIC: Table 5 organism 6 S. saprophyticus
From the text: as §1, §2, §4

[6] = test system: Streptococcus pyogenes; assay: as above; type: cell-based; details: Table 2 test organism 11, Streptococcus pyogenes
From the text: as §1, §2

[7] = test system: Coag-neg. Staphylococci; assay: MIC against an expanded panel; type: cell-based; details: Table 4, Coag-neg. Staphylococci (24 strains)
From the text: as §3

[8] = test system: Group A Strep.; assay: MIC against an expanded panel; type: cell-based; details: Table 4, Group A Strep. (6 strains)
From the text: as §3

[9] = test system: Group B Strep.; assay: MIC against an expanded panel; type: cell-based; details: Table 4, Group B Strep. (4 strains)
From the text: as §3

[10] = test system: JK Diptheroids; assay: MIC against an expanded panel; type: cell-based; details: Table 4, JK Diptheroids (19 strains)
From the text: as §3

[11] = test system: Viridans; assay: MIC against an expanded panel; type: cell-based; details: Table 4, Viridans (2 strains)
From the text: as §3

[12] = test system: S. aureus; assay: mice infected intraperitoneally, dosed 1 hr after infection, ED50; type: in vivo; details: for ED50: antibiotic i.v. 1 hr post infection
Method: (§5) The in vivo activity of the CWI-785 complex and its components and hydrolysis products was confirmed by administering selected CWI-785 antibiotics to mice infected with various gram-positive pathogens. In one representative assay, in which mice infected intraperitoneally with 46.8 LD50 's of S. aureus (strain 1, Tables 1 and 2) were dosed once, subcutaneously one hour after infection, the following ED50 's (mg/kg) were observed: CWI-785B: 2.4, CWI-785C: 3.1, CWI-785: 3.8, HPB3: 0.9, vancomycin: 0.7. In a second representative assay carried out as above except that mice were infected with 3.17 LD50 's of S. faecalis (strain 9, Table 2), the following ED50 's were observed: HPB3 hydrochloride: 1.6, HPB4 hydrochloride: 1.6, vancomycin: 2.2, teicoplanin: 1.3.
(§6) In Table 6, below, is shown the ED50 in mg/kg of HPB4 in comparison to vancomycin and teicoplanin. Mice were injected i.p. with the indicated organism and then i.v., 1 hr post infection, with the indicated antibiotic.

[13] = test system: S. faecalis; assay: as above; type: in vivo
Method: as §5, §6

[14] = test system: S. epidermidis; assay: mice infected i.p., antibiotic i.v. 1 hr post infection, ED50; type: in vivo; details: S. epidermidis 2479 (>1000 × LD50) i.p., antibiotic i.v. 1 hr post infection
Method: as §6

[15] = test system: S. haemolyticus; assay: as above; type: in vivo; details: S. haemolyticus 651 (8 × LD50) i.p., antibiotic i.v. 1 hr post infection
Method: as §6

[16] = predicted human half-life; details: in comparison to vancomycin
[17] = test system: gram-positive organisms; assay: in vitro antibacterial activity (stated in words); type: cell-based; details: in vitro data
From the text: Unless specifically indicated, as used herein, CWI-785B, HPB4 and HPB3 will mean a mixture of epimers. Analogous ' and " epimers of other components of the CWI-785 complex also exist and are included within the scope of the invention.

[18] = Table 4, S. aureus (30 strains)
[19] = Table 4, Strep. faecalis (12 strains)

## CNC(C(=O)NC1C(=O)NC(CCSC)C(=O)NC2C(=O)NC3C(=O)NC(C(=O)NC(C(=O)O)c4cc(O)cc(O)c4-c4cc3ccc4O)C(O[C@H]3C[C@@H](N)[C@@H](O)[C@H](C)O3)c3ccc(c(Cl)c3)Oc3cc2cc(c3O)Oc2ccc(cc2)C1O)c1ccc(O)cc1 (stereo partly shown) [HPB4]
[1]; Table 2 test organism 1, S. aureus strain
  minimum inhibitory concentration: 1.6 µg/mL (≈ 1.24 µM)
[1]; Table 2 test organism 2, S. aureus strain
  minimum inhibitory concentration: 0.8 µg/mL (≈ 0.619 µM)
[1]; Table 2 test organism 3, S. aureus strain
  minimum inhibitory concentration: 0.8 µg/mL (≈ 0.619 µM)
[1]; Table 2 test organism 4, S. aureus strain
  minimum inhibitory concentration: 0.8 µg/mL (≈ 0.619 µM)
[1]; Table 2 test organism 5, S. aureus strain
  minimum inhibitory concentration: 0.8 µg/mL (≈ 0.619 µM)
[1]; [18]
  MIC50: 0.8 µg/mL (≈ 0.619 µM)
  MIC RANGE: 0.2 to 0.8 µg/mL
[1]; 50% Hum. Serum
  MIC: 1.6 µg/mL (≈ 1.24 µM)
[1]; 50% Mse. Serum
  MIC: 1.6 µg/mL (≈ 1.24 µM)
[1]; No Serum
  MIC: 1.6 µg/mL (≈ 1.24 µM)
[2]; Table 2 test organism 9, Streptococcus faecalis strain
  minimum inhibitory concentration: 0.8 µg/mL (≈ 0.619 µM)
[2]; Table 2 test organism 10, Streptococcus faecalis strain
  minimum inhibitory concentration: 0.8 µg/mL (≈ 0.619 µM)
[2]; [19]
  MIC50: 0.4 µg/mL (≈ 0.31 µM)
  MIC RANGE: 0.2 to 0.8 µg/mL
[2]; Table 4, Strep. faecalis MBC50
  MBC50: 12.5 µg/mL (≈ 9.68 µM)
[2]; Table 4, Strep. faecalis MBC50 column
  MBC RANGE: 3.1 to 25 µg/mL
[2]; Table 5 organism 7 S. faecalis, 50% Hum. Serum
  MIC: 3.1 µg/mL (≈ 2.4 µM)
[2]; Table 5 organism 7 S. faecalis, 50% Mse. Serum
  MIC: 3.1 µg/mL (≈ 2.4 µM)
[2]; Table 5 organism 7 S. faecalis, No Serum
  MIC: 0.4 µg/mL (≈ 0.31 µM)
[2]; Table 5 organism 8 S. faecalis, 50% Hum. Serum
  MIC: 3.1 µg/mL (≈ 2.4 µM)
[2]; Table 5 organism 8 S. faecalis, 50% Mse. Serum
  MIC: 3.1 µg/mL (≈ 2.4 µM)
[2]; Table 5 organism 8 S. faecalis, No Serum
  MIC: 0.4 µg/mL (≈ 0.31 µM)
[3]; Table 2 test organism 6, S. epidermidis strain
  minimum inhibitory concentration: 1.6 µg/mL (≈ 1.24 µM)
[3]; Table 2 test organism 8, S. epidermidis strain
  minimum inhibitory concentration: 3.1 µg/mL (≈ 2.4 µM)
[3]; Table 2 test organism 12, S. epidermidis strain
  minimum inhibitory concentration: 1.6 µg/mL (≈ 1.24 µM)
[3]; Table 2 test organism 14, S. epidermidis strain
  minimum inhibitory concentration: 0.8 µg/mL (≈ 0.619 µM)
[3]; Table 5 organism 2 S. epidermidis, 50% Hum. Serum
  MIC: 3.1 µg/mL (≈ 2.4 µM)
[3]; Table 5 organism 2 S. epidermidis, 50% Mse. Serum
  MIC: 3.1 µg/mL (≈ 2.4 µM)
[3]; Table 5 organism 2 S. epidermidis, No Serum
  MIC: 1.6 µg/mL (≈ 1.24 µM)
[3]; Table 5 organism 4 S. epidermidis, 50% Hum. Serum
  MIC: 3.1 µg/mL (≈ 2.4 µM)
[3]; Table 5 organism 4 S. epidermidis, 50% Mse. Serum
  MIC: 3.1 µg/mL (≈ 2.4 µM)
[3]; Table 5 organism 4 S. epidermidis, No Serum
  MIC: 3.1 µg/mL (≈ 2.4 µM)
[3]; Table 5 organism 5 S. epidermidis, 50% Hum. Serum
  MIC: 3.1 µg/mL (≈ 2.4 µM)
[3]; Table 5 organism 5 S. epidermidis, 50% Mse. Serum
  MIC: 1.6 µg/mL (≈ 1.24 µM)
[3]; Table 5 organism 5 S. epidermidis, No Serum
  MIC: 0.8 µg/mL (≈ 0.619 µM)
[4]; Table 2 test organism 7, Staphylococcus haemolyticus
  minimum inhibitory concentration: 1.6 µg/mL (≈ 1.24 µM)
[4]; 50% Hum. Serum
  MIC: 6.3 µg/mL (≈ 4.88 µM)
[4]; 50% Mse. Serum
  MIC: 6.3 µg/mL (≈ 4.88 µM)
[4]; No Serum
  MIC: 1.6 µg/mL (≈ 1.24 µM)
[5]; Table 2 test organism 13, Staphylococcus saprophyticus
  minimum inhibitory concentration: 1.6 µg/mL (≈ 1.24 µM)
[5]; 50% Hum. Serum
  MIC: 6.3 µg/mL (≈ 4.88 µM)
[5]; 50% Mse. Serum
  MIC: 0.2 µg/mL (≈ 0.155 µM)
[5]; No Serum
  MIC: 0.8 µg/mL (≈ 0.619 µM)
[6]
  minimum inhibitory concentration: 0.2 µg/mL (≈ 0.155 µM)
[7]
  MIC50: 1.6 µg/mL (≈ 1.24 µM)
  MIC RANGE: 0.4 to 3.1 µg/mL
[8]
  MIC50: 0.4 µg/mL (≈ 0.31 µM)
  MIC RANGE: 0.05 to 0.8 µg/mL
[9]
  MIC RANGE: 0.1 to 0.8 µg/mL
[10]
  MIC50: 0.4 µg/mL (≈ 0.31 µM)
  MIC RANGE: 0.4 to 0.8 µg/mL
[11]
  MIC RANGE: 0.025 to 0.8 µg/mL
[12]; S. aureus 2620 (24 × LD50) i.p.
  ED50: 1.6 mg/kg
[12]; S. aureus HH 127 (35 × LD50) i.p.
  ED50: 1.8 mg/kg
[12]; against S. aureus 127
  in vivo effectiveness relative to HPB4": fourfold more effective
[13]; S. faecalis 34358 (9 × LD50) i.p., antibiotic i.v. 1 hr post infection
  ED50: 1.0 mg/kg
[13]; against S. faecalis 34358
  in vivo effectiveness relative to HPB4": fourfold more effective
[14]
  ED50: 2.0 mg/kg
[15]
  ED50: 20 mg/kg
[16]
  human half-life (predicted): at least 12 hours
[17]
  in vitro activity relative to the corresponding B" isomer: more active
